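48-hour exposure; five concentrations; linearly interpolated endpoints. The concentration for 50% growth inhibition is given as GI50. The concentration for full growth arrest is given as TGI.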
What was measured:
Assay in all cases: DTP human tumour cell line panel, 48 h
[1] = test system: BT-549 breast
[2] = test system: T-47D breast
[3] = test system: SF-268 CNS
[4] = test system: SK-OV-3 ovarian
[5] = test system: MDA-MB-231 breast
[6] = test system: HT29 colon
[7] = test system: K-562 leukemia
[8] = test system: NCI-H460 lung
[9] = test system: OVCAR-5 ovarian
[10] = test system: HOP-92 NSCLC
[11] = test system: HOP-62 NSCLC
[12] = test system: MOLT-4 leukemia
[13] = test system: MALME-3M melanoma
[14] = test system: UO-31 renal
[15] = test system: PC-3 prostate
[16] = test system: A549 NSCLC
[17] = test system: IGROV1 ovarian
[18] = test system: NCI-H23 lung
[19] = test system: DU-145 prostate
[20] = test system: UACC-257 melanoma
[21] = test system: NCI-H226 lung
[22] = test system: OVCAR-4 ovarian
[23] = test system: SK-MEL-2 melanoma
[24] = test system: SNB-19 CNS
[25] = test system: MDA-MB-435
[26] = test system: NCI/ADR-RES ovarian
[27] = test system: SK-MEL-5 melanoma
[28] = test system: ACHN renal
[29] = test system: SR leukemia
[30] = test system: KM12 colon
[31] = test system: LOX IMVI melanoma
[32] = test system: A498 renal
[33] = test system: TK-10 renal
[34] = test system: HCT-15 colon
[35] = test system: 786-0 renal
[36] = test system: HS 578T breast
[37] = test system: UACC-62 melanoma
[38] = test system: SF-539 CNS
[39] = test system: M14 melanoma
[40] = test system: SF-295 CNS
[41] = test system: HCT-116 colon
[42] = test system: SW-620 colon
[43] = test system: HL-60(TB) leukemia
[44] = test system: RPMI-8226 leukemia
[45] = test system: RXF 393 renal
[46] = test system: OVCAR-8 ovarian
[47] = test system: MCF7 breast
[48] = test system: COLO 205 colon
[49] = test system: CCRF-CEM leukemia
[50] = test system: OVCAR-3 ovarian
[51] = test system: SN12C renal
[52] = test system: HCC-2998 colon
[53] = test system: NCI-H522 lung
[54] = test system: EKVX NSCLC
[55] = test system: U251 CNS
[56] = test system: SK-MEL-28 melanoma
[57] = test system: CAKI-1 renal
[58] = test system: SNB-75 CNS
[59] = test system: MDA-N

COc1ccc(C2C3=C(COC3=O)N(CCO)c3cc4c(cc32)OCCO4)cc1OC (configuration not stated)
GI50 [1]: 5.06 µM | TGI [1]: > 47.9 µM | GI50 [2]: 2.17 µM | TGI [2]: > 50 µM | GI50 [3]: 4.3 µM | TGI [3]: > 50 µM | GI50 [4]: 1.98 µM | TGI [4]: > 50 µM | GI50 [5]: 6.78 µM | TGI [5]: 36.5 µM | GI50 [6]: 1.64 µM | TGI [6]: > 14.9 µM | GI50 [7]: 1.38 µM | TGI [7]: > 50 µM | GI50 [8]: 1.84 µM | TGI [8]: > 18.9 µM | GI50 [9]: 18.4 µM | TGI [9]: > 50 µM | GI50 [10]: 0.837 µM | TGI [10]: > 50 µM | GI50 [11]: 9.58 µM | TGI [11]: > 50 µM | GI50 [12]: 2.85 µM | TGI [12]: > 47.4 µM | GI50 [13]: > 50 µM | TGI [13]: > 50 µM | GI50 [14]: 4.09 µM | TGI [14]: > 50 µM | GI50 [15]: 1.58 µM | TGI [15]: > 50 µM | GI50 [16]: 5.11 µM | TGI [16]: > 50 µM | GI50 [17]: 1.91 µM | TGI [17]: 14.9 µM | GI50 [18]: 2.25 µM | TGI [18]: > 50 µM | GI50 [19]: 1.93 µM | TGI [19]: 14.9 µM | GI50 [20]: 2.4 µM | TGI [20]: > 50 µM | GI50 [21]: > 50 µM | TGI [21]: > 50 µM | GI50 [22]: 3.67 µM | TGI [22]: > 50 µM | GI50 [23]: 0.979 µM | TGI [23]: 3.65 µM | TGI [24]: > 30.5 µM | GI50 [25]: 0.255 µM | TGI [25]: 1.78 µM | GI50 [26]: 11.4 µM | TGI [26]: > 50 µM | GI50 [27]: 0.906 µM | TGI [27]: > 50 µM | GI50 [28]: > 50 µM | TGI [28]: > 50 µM | GI50 [29]: 0.741 µM | TGI [29]: 35.8 µM | GI50 [30]: 1.35 µM | TGI [30]: > 38.7 µM | GI50 [31]: 3.84 µM | TGI [31]: > 50 µM | GI50 [32]: 1.61 µM | TGI [32]: > 15.6 µM | GI50 [33]: > 10.2 µM | TGI [33]: > 36.3 µM | GI50 [34]: 5.39 µM | TGI [34]: > 50 µM | GI50 [35]: 2.48 µM | TGI [35]: > 50 µM | GI50 [36]: 1.44 µM | TGI [36]: > 50 µM | TGI [37]: > 50 µM | GI50 [38]: 1.69 µM | TGI [38]: > 18 µM | GI50 [39]: 1.94 µM | TGI [39]: > 30.7 µM | GI50 [40]: 0.922 µM | TGI [40]: 12 µM | GI50 [41]: 1.96 µM | TGI [41]: > 50 µM | GI50 [42]: 1.8 µM | TGI [42]: > 50 µM | GI50 [43]: 1.28 µM | TGI [43]: 5.65 µM | GI50 [44]: 1.91 µM | TGI [44]: > 12.6 µM | GI50 [45]: 0.807 µM | TGI [45]: 2.86 µM | GI50 [46]: 4.46 µM | TGI [46]: > 50 µM | GI50 [47]: 0.634 µM | TGI [47]: > 50 µM | GI50 [48]: 1.34 µM | TGI [48]: 3.62 µM | GI50 [49]: 2.02 µM | TGI [49]: > 50 µM | GI50 [50]: 1.11 µM | TGI [50]: 3 µM | GI50 [51]: > 15.7 µM | TGI [51]: > 50 µM | GI50 [52]: 1.76 µM | TGI [52]: 8.67 µM | GI50 [53]: 0.27 µM | TGI [53]: 1.38 µM | GI50 [54]: 5.98 µM | TGI [54]: > 50 µM | GI50 [55]: 2.89 µM | TGI [55]: > 50 µM | GI50 [56]: > 50 µM | TGI [56]: > 50 µM | GI50 [57]: 4.03 µM | TGI [57]: > 50 µM

CC1CC(NN(C)C)C2(C(N)=O)C(N)=NC(=O)C12C#N (configuration not stated)
TGI [2]: > 100 µM | TGI [3]: > 100 µM | TGI [4]: > 100 µM | TGI [5]: > 100 µM | TGI [6]: > 100 µM | TGI [58]: > 100 µM | TGI [7]: > 100 µM | TGI [9]: > 100 µM | TGI [10]: > 100 µM | TGI [11]: > 100 µM | TGI [12]: > 100 µM | TGI [13]: > 100 µM | TGI [14]: > 100 µM | TGI [15]: > 100 µM | TGI [16]: > 100 µM | TGI [17]: > 100 µM | TGI [18]: > 100 µM | TGI [19]: > 100 µM | TGI [20]: > 100 µM | TGI [21]: > 100 µM | TGI [23]: > 100 µM | TGI [59]: > 100 µM | TGI [24]: > 100 µM | TGI [25]: > 100 µM | TGI [26]: > 100 µM | TGI [27]: > 100 µM | TGI [28]: > 100 µM | TGI [29]: > 100 µM | TGI [30]: > 100 µM | TGI [31]: > 100 µM | TGI [32]: > 100 µM | TGI [33]: > 100 µM | TGI [34]: > 100 µM | TGI [35]: > 100 µM | TGI [36]: > 100 µM | TGI [37]: > 100 µM | TGI [38]: > 100 µM | TGI [39]: > 100 µM | TGI [40]: > 100 µM | TGI [41]: > 100 µM | TGI [42]: > 100 µM | TGI [44]: > 100 µM | TGI [45]: > 100 µM | TGI [46]: > 100 µM | TGI [47]: > 100 µM | TGI [48]: > 100 µM | TGI [49]: > 100 µM | TGI [51]: > 100 µM | TGI [52]: > 100 µM | TGI [53]: > 100 µM | TGI [54]: > 100 µM | TGI [55]: > 100 µM | TGI [56]: > 100 µM | TGI [57]: > 100 µM

O=C1/C(=C\c2c(-c3ccccc3)nn(-c3ccccc3)c2O)C(c2ccccc2)=NN1c1ccccc1
TGI [2]: > 100 µM | TGI [3]: > 100 µM | TGI [4]: > 100 µM | TGI [5]: > 100 µM | TGI [6]: > 100 µM | TGI [58]: > 100 µM | TGI [7]: > 100 µM | TGI [8]: > 100 µM | TGI [9]: > 100 µM | TGI [10]: > 100 µM | TGI [11]: > 100 µM | TGI [12]: > 100 µM | TGI [13]: > 100 µM | TGI [14]: > 100 µM | TGI [15]: > 100 µM | TGI [16]: > 100 µM | TGI [17]: > 100 µM | TGI [18]: > 100 µM | TGI [19]: > 100 µM | TGI [20]: > 100 µM | TGI [21]: > 100 µM | TGI [22]: > 100 µM | TGI [23]: > 100 µM | TGI [59]: > 100 µM | TGI [24]: > 100 µM | TGI [25]: > 100 µM | TGI [26]: > 100 µM | TGI [28]: > 100 µM | TGI [29]: 61.4 µM | TGI [30]: > 100 µM | TGI [31]: > 100 µM | TGI [32]: > 100 µM | TGI [33]: > 100 µM | TGI [34]: > 100 µM | TGI [35]: > 100 µM | TGI [36]: > 100 µM | TGI [37]: > 100 µM | TGI [38]: > 100 µM | TGI [39]: > 100 µM | TGI [40]: > 100 µM | TGI [41]: > 100 µM | TGI [42]: > 100 µM | TGI [43]: > 100 µM | TGI [44]: > 100 µM | TGI [45]: > 100 µM | TGI [46]: > 100 µM | TGI [47]: > 100 µM | TGI [48]: > 100 µM | TGI [49]: > 100 µM | TGI [50]: > 100 µM | TGI [51]: > 100 µM | TGI [52]: > 100 µM | TGI [54]: > 100 µM | TGI [55]: > 100 µM | TGI [56]: > 100 µM | TGI [57]: > 100 µM
